# Laboratory results published in patent US8658640B2, “JNK inhibitors for the treatment of endometriosis” (Merck Serono SA, priority 2005, dated 2014).
# Assays:
# [1] = cited from earlier work
# [2] = test system: human endometrial tissue organ cultures; assay: Proliferative organ culture model (MMP-3 Western blot); format: cell-based
# Excerpt: Normal endometrial tissues were acquired just prior to ovulation by biopsy from a donor population (no history of endometriosis) and from women with surgically confirmed endometriosis. Informed consent was obtained prior to biopsy and the use of human tissues was approved by Vanderbilt University's Institutional Review Board and Committee for the Protection of Human Subjects.
# Endometrial biopsies were dissected into small cubes (˜1×1 mm^3) and 8-10 pieces of tissue per treatment group were suspended in tissue culture inserts. Organ cultures were maintained a total of 72 hrs at 37° C. in DME/F-12 media with serum supplements. Tissue treatments included 17β-estradiol (E), E plus progesterone (P), or E plus medroxy progesterone acetate (MPA) with and without the JNK inhibitor. Cultures were maintained for 24 hours in E only until the initiation of experimental conditions. JNK inhibitor was used at a concentration of 5 or 15 μM and MPA was used at a concentration of 50, 100 or 250 μM.
# Media was collected from organ cultures and secreted proteins quantified using the Coomassie Plus Protein Assay (Pierce) and 20 μg total protein subjected to 10% SDS-PAGE. Proteins were transferred to PVDF membrane and blocked in PBS with 10% non-fat milk and 0.05% Tween-20. […]
# [3] = test system: endometriotic lesions from human endometrial tissue; conditions: earlier work using this model; positive control; cited from earlier work
# endometriotic-like foci = assay: Rat model of experimentally induced endometriosis; format: in vivo; conditions: for comparison; data not shown
# Excerpt: The control group received the vehicle only.
compound,measurement,setting,value
C#C[C@]1(O)CC[C@H]2[C@@H]3CCC4=Cc5oncc5C[C@]4(C)[C@H]3CC[C@@]21C [Danazol],patients suffering from pain with improved symptoms,[1],66-100%
"CC(=O)O[C@]1(C(C)=O)CC[C@H]2[C@@H]3C[C@H](C)C4=CC(=O)CC[C@]4(C)[C@H]3CC[C@@]21C [MPA, medroxy progesterone acetate]",sensitivity to MPA treatment,[2]; endometrial cultures from endometriosis patients,failed to regress
same,sensitivity to MPA treatment,[2]; endometrial cultures from normal volunteers,sensitive
CC(=O)[C@H]1CC[C@H]2[C@@H]3CCC4=CC(=O)CC[C@]4(C)[C@H]3CC[C@]12C [progesterone],disease progression,[3],prevents disease progression
antide,regression of established endometriotic lesions,endometriotic-like foci,about 85%
